Source: PubChem BioAssay AID180 (DTP/NCI, 2004)
“And” between values parts separate entries of the source, which are not always exact repeats. Identical values can stand only once.

System: BDF1 mice, Adenocarcinoma 755 s.c., tumor weight T/C
Assay: NCI In Vivo Anticancer Drug Screen. Data for tumor model Adenocarcinoma 755 (subcutaneous) in B6D2F1 (BDF1) mice
Settings: endpoint: mean tumor weight, higher = larger tumour
Summary of the method: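 In vivo antitumor screen on a transplantable tumor line. Result equals the measure in compound-treated animals divided by the same measure in vehicle controls.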

[1] = dose: 0.5 mg/kg/injection, schedule: Q01DX011 (ip), vehicle: carboxymethylcellulose (CMC)
[2] = dose: 0.5 mg/kg/injection, schedule: Q01DX011 (ip), vehicle: saline
[3] = dose: 75.0 mg/kg/injection, schedule: Q01DX011 (ip), vehicle: methylcellulose (MC)
[4] = dose: 150.0 mg/kg/injection, schedule: Q01DX011 (ip), vehicle: methylcellulose (MC)

CCOC(=O)C(N)Cc1ccc(N(CCCl)CCCl)cc1 (stereo unspecified)
T/C [1]: 92 % of control
T/C [2]: 82 % of control
T/C (dose: 1.1 mg/kg/injection, schedule: Q01DX011 (ip), vehicle: carboxymethylcellulose (CMC)): 77 % of control
T/C (dose: 1.1 mg/kg/injection, schedule: Q01DX011 (ip), vehicle: saline): 40 % of control
T/C (dose: 2.2 mg/kg/injection, schedule: Q01DX011 (ip), vehicle: carboxymethylcellulose (CMC)): 91 % of control
T/C (dose: 2.2 mg/kg/injection, schedule: Q01DX011 (ip), vehicle: saline): 9 % of control
T/C (dose: 4.5 mg/kg/injection, schedule: Q01DX011 (ip), vehicle: carboxymethylcellulose (CMC)): 78 % of control
T/C (dose: 4.5 mg/kg/injection, schedule: Q01DX011 (ip), vehicle: saline): 1 % of control
T/C (dose: 9.0 mg/kg/injection, schedule: Q01DX011 (ip), vehicle: carboxymethylcellulose (CMC)): 69 % of control

c1ccc2cc(SCCCN3CCOCC3)ccc2c1
T/C (dose: 37.5 mg/kg/injection, schedule: Q01DX011 (ip), vehicle: methylcellulose (MC)): 90 % of control and 107 % of control
T/C (dose: 37.5 mg/kg/injection, schedule: Q01DX011 (ip), vehicle: saline): 115 % of control
T/C [3]: 103 % of control
T/C (dose: 75.0 mg/kg/injection, schedule: Q01DX011 (ip), vehicle: saline): 59 % of control
T/C [4]: 70 % of control
T/C (dose: 150.0 mg/kg/injection, schedule: Q01DX011 (ip), vehicle: saline): 20 % of control

c1ccc2nc(-c3cc4ccccc4s3)ccc2c1
T/C (dose: 133.0 mg/kg/injection, schedule: Q01DX011 (ip), vehicle: carboxymethylcellulose (CMC)): 42 % of control
T/C (dose: 133.0 mg/kg/injection, schedule: Q01DX011 (ip), vehicle: saline): 42 % of control
T/C (dose: 200.0 mg/kg/injection, schedule: Q01DX011 (ip), vehicle: carboxymethylcellulose (CMC)): 53 % of control
T/C (dose: 200.0 mg/kg/injection, schedule: Q01DX011 (ip), vehicle: saline): 39 % of control
T/C (dose: 300.0 mg/kg/injection, schedule: Q01DX011 (ip), vehicle: carboxymethylcellulose (CMC)): 24 % of control
T/C (dose: 300.0 mg/kg/injection, schedule: Q01DX011 (ip), vehicle: saline): 34 % of control
T/C (dose: 450.0 mg/kg/injection, schedule: Q01DX011 (ip), vehicle: saline): 21 % of control

CC(c1ccccc1)c1nc2c([nH]1)c(=O)n(C)c(=O)n2C (stereo unspecified)
T/C (dose: 40.0 mg/kg/injection, schedule: Q01DX011 (ip), vehicle: methylcellulose (MC)): 99 % of control
T/C [3]: 86 % of control
T/C [4]: 72 % of control

O=C(CC[n+]1ccccc1)N1CCN(C(=O)CC[n+]2ccccc2)CC1
T/C (dose: 1.0 mg/kg/injection, schedule: Q01DX011 (ip), vehicle: methylcellulose (MC)): 94 % of control
T/C (dose: 3.0 mg/kg/injection, schedule: Q01DX011 (ip), vehicle: methylcellulose (MC)): 68 % of control

CCCCNP(=O)(N1CC1C)N1CC1C (stereo unspecified)
T/C (dose: 7.0 mg/kg/injection, schedule: Q01DX011 (ip), vehicle: saline): 53 % of control
T/C (dose: 14.0 mg/kg/injection, schedule: Q01DX011 (ip), vehicle: saline): 53 % of control
T/C (dose: 28.0 mg/kg/injection, schedule: Q01DX011 (ip), vehicle: saline): 25 % of control
T/C (dose: 56.0 mg/kg/injection, schedule: Q01DX011 (ip), vehicle: saline): 1 % of control

CC(=O)OCC(=O)[C@@]1(O)CC[C@H]2[C@@H]3C[C@H](C)C4=CC(=O)C=C[C@]4(C)[C@@]3(F)[C@@H](O)C[C@@]21C
T/C (dose: 0.06 mg/kg/injection, schedule: Q01DX011 (sc), vehicle: steriod suspending solution): 101 % of control
T/C (dose: 0.13 mg/kg/injection, schedule: Q01DX011 (sc), vehicle: steriod suspending solution): 87 % of control
T/C (dose: 4.0 mg/kg/injection, schedule: Q01DX011 (sc), vehicle: steriod suspending solution): 49 % of control
T/C (dose: 5.0 mg/kg/injection, schedule: Q01DX011 (sc), vehicle: steriod suspending solution): 48 % of control
T/C (dose: 9.0 mg/kg/injection, schedule: Q01DX011 (sc), vehicle: steriod suspending solution): 37 % of control
T/C (dose: 10.0 mg/kg/injection, schedule: Q01DX011 (sc), vehicle: steriod suspending solution): 34 % of control
T/C (dose: 18.0 mg/kg/injection, schedule: Q01DX011 (sc), vehicle: steriod suspending solution): 37 % of control and 51 % of control
T/C (dose: 20.0 mg/kg/injection, schedule: Q01DX011 (sc), vehicle: steriod suspending solution): 21 % of control
T/C (dose: 37.0 mg/kg/injection, schedule: Q01DX011 (sc), vehicle: steriod suspending solution): 13 % of control and 22 % of control
T/C (dose: 75.0 mg/kg/injection, schedule: Q01DX011 (sc), vehicle: steriod suspending solution): 15 % of control

CS(C)=O
T/C (dose: 1000.0 mg/kg/injection, schedule: Q01DX011 (ip), vehicle: other): 71 % of control
T/C (dose: 1000.0 mg/kg/injection, schedule: Q#A X022 (ip), vehicle: other): 25 % of control
T/C (dose: 1500.0 mg/kg/injection, schedule: Q01DX011 (ip), vehicle: other): 115 % of control
T/C (dose: 1500.0 mg/kg/injection, schedule: Q#A X022 (ip), vehicle: other): 67 % of control

O=[As]O
T/C (dose: 0.12 mg/kg/injection, schedule: Q01DX011 (ip), vehicle: carboxymethylcellulose (CMC)): 116 % of control
T/C (dose: 0.25 mg/kg/injection, schedule: Q01DX011 (ip), vehicle: carboxymethylcellulose (CMC)): 86 % of control
T/C [1]: 98 % of control
T/C (dose: 1.0 mg/kg/injection, schedule: Q01DX011 (ip), vehicle: carboxymethylcellulose (CMC)): 77 % of control
T/C (dose: 1.63 mg/kg/injection, schedule: Q01DX011 (ip), vehicle: carboxymethylcellulose (CMC)): 70 % of control
T/C (dose: 2.0 mg/kg/injection, schedule: Q01DX011 (ip), vehicle: carboxymethylcellulose (CMC)): 19 % of control
T/C (dose: 2.0 mg/kg/injection, schedule: Q01DX011 (ip), vehicle: methylcellulose (MC)): 66 % of control
T/C (dose: 3.15 mg/kg/injection, schedule: Q01DX011 (ip), vehicle: carboxymethylcellulose (CMC)): 124 % of control
T/C (dose: 3.25 mg/kg/injection, schedule: Q01DX011 (ip), vehicle: carboxymethylcellulose (CMC)): 72 % of control
T/C (dose: 5.0 mg/kg/injection, schedule: Q01DX011 (ip), vehicle: carboxymethylcellulose (CMC)): 21 % of control
T/C (dose: 5.0 mg/kg/injection, schedule: Q01DX011 (ip), vehicle: methylcellulose (MC)): 52 % of control
T/C (dose: 6.3 mg/kg/injection, schedule: Q01DX011 (ip), vehicle: carboxymethylcellulose (CMC)): 67 % of control
T/C (dose: 8.66 mg/kg/injection, schedule: Q01DX011 (ip), vehicle: carboxymethylcellulose (CMC)): 63 % of control and 70 % of control
T/C (dose: 12.6 mg/kg/injection, schedule: Q01DX011 (ip), vehicle: carboxymethylcellulose (CMC)): 67 % of control
T/C (dose: 13.0 mg/kg/injection, schedule: Q01DX011 (ip), vehicle: carboxymethylcellulose (CMC)): 28 % of control and 35 % of control

CC(=O)c1cccc(NC2C(N)C(NC(=O)N(C)C)(C(C)O)C(C)(O)C2(O)COC(=O)c2c(C)cccc2O)c1 (stereo unspecified)
T/C (dose: 0.25 mg/kg/injection, schedule: Q01DX011 (ip), vehicle: saline): 36 % of control
T/C [2]: 83 % of control
T/C (dose: 1.0 mg/kg/injection, schedule: Q01DX011 (ip), vehicle: saline): 67 % of control
T/C (dose: 2.0 mg/kg/injection, schedule: Q01DX011 (ip), vehicle: saline): 24 % of control

O=C(O)C(=O)c1ccc(-c2ccccc2)cc1
T/C (dose: 3.7 mg/kg/injection, schedule: Q01DX011 (ip), vehicle: carboxymethylcellulose (CMC)): 99 % of control
T/C (dose: 7.5 mg/kg/injection, schedule: Q01DX011 (ip), vehicle: carboxymethylcellulose (CMC)): 100 % of control
T/C (dose: 15.0 mg/kg/injection, schedule: Q01DX011 (ip), vehicle: carboxymethylcellulose (CMC)): 87 % of control

COc1cc(C(=O)O)nc(N)n1
T/C (dose: 15.0 mg/kg/injection, schedule: Q01DX011 (ip), vehicle: saline): 111 % of control
T/C (dose: 125.0 mg/kg/injection, schedule: Q01DX011 (ip), vehicle: saline): 100 % of control
T/C (dose: 250.0 mg/kg/injection, schedule: Q01DX011 (ip), vehicle: saline): 161 % of control

CCC(=O)O[C@H]1CC[C@H]2[C@@H]3CCC4=CC(=O)CC[C@]4(C)[C@H]3[C@@H](O)C[C@]12C
T/C (dose: 50.0 mg/kg/injection, schedule: Q01DX011 (sc), vehicle: steriod suspending solution): 121 % of control
T/C (dose: 200.0 mg/kg/injection, schedule: Q01DX011 (sc), vehicle: steriod suspending solution): 101 % of control

CC(C)(CBr)C(=O)N1CCN(C(=O)C(C)(C)CBr)CC1
T/C (dose: 7.0 mg/kg/injection, schedule: Q01DX011 (ip), vehicle: methylcellulose (MC)): 80 % of control
T/C (dose: 14.0 mg/kg/injection, schedule: Q01DX011 (ip), vehicle: methylcellulose (MC)): 56 % of control

O=C(Nc1ccc(C2=NCCN2)cc1)c1cc(Cl)c(C(=O)Nc2ccc(C3=NCCN3)cc2)cc1Cl
T/C (dose: 15.0 mg/kg/injection, schedule: Q01DX011 (ip), vehicle: methylcellulose (MC)): 105 % of control
T/C (dose: 30.0 mg/kg/injection, schedule: Q01DX011 (ip), vehicle: methylcellulose (MC)): 68 % of control
